Like-named read-outs stand apart in the source and are kept apart here.
Assays:
Assay type in all cases: in vivo
[1] = system: pigweed (Amaranthus retroflexus); assay: Test A preemergence; conditions: Amaranthus retroflexus, pre-emergence, 240 h; for pest or weed control at 125 g/ha: 125 g ai/ha; for pest or weed control at 500 g/ha: 500 g ai/ha
[2] = system: pigweed (Amaranthus retroflexus); assay: Test A postemergence; conditions: Amaranthus retroflexus, post-emergence, 240 h, postemergence, read-out: Pigweed plant response rating; for pest or weed control at 125 g/ha: 125 g ai/ha, visual injury on 0 to 100 scale (0 no effect, 100 complete control), approx. 10 d
How it was run: (§1)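 Ratings of 0 (no effect) to 100 (complete control) come from visual comparison with untreated controls roughly 10 d after treatment. Test chemicals, formulated in a non-phytotoxic solvent mixture with surfactant, were applied either as a preemergence directed soil spray on seeded soil or postemergence to one- to two-leaf plants 2 to 10 cm tall.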

[3] = system: blackgrass (Alopecurus myosuroides); assay: Test A postemergence; conditions: Alopecurus myosuroides, post-emergence, 240 h, postemergence; for pest or weed control at 125 g/ha: 125 g ai/ha, visual injury on 0 to 100 scale (0 no effect, 100 complete control); for pest or weed control at 500 g/ha: 500 g ai/ha
How it was run: as §1

corn (Zea mays) = assay: Test A postemergence; conditions: Zea mays, post-emergence, 240 h, postemergence; for plant injury at 125 g/ha: 125 g ai/ha, visual injury on 0 to 100 scale (0 no effect, 100 complete control)
How it was run: as §1

[4] = system: giant foxtail (Setaria faberii); assay: Test A postemergence; conditions: Setaria faberi, post-emergence, 240 h, postemergence; for pest or weed control at 125 g/ha: 125 g ai/ha, visual injury on 0 to 100 scale (0 no effect, 100 complete control); for pest or weed control at 500 g/ha: 500 g ai/ha
How it was run: as §1

[5] = system: wheat (Triticum aestivum); assay: Test A postemergence; conditions: Triticum aestivum, post-emergence, 240 h, postemergence, read-out: Wheat plant response rating; for plant injury at 125 g/ha: 125 g ai/ha, visual injury on 0 to 100 scale (0 no effect, 100 complete control), approx. 10 d
How it was run: as §1

[6] = system: ryegrass, Italian (Italian ryegrass, Lolium multiflorum); assay: Test A postemergence; conditions: Lolium multiflorum, post-emergence, 240 h, postemergence, read-out: Ryegrass, Italian plant response rating; for pest or weed control at 125 g/ha: 125 g ai/ha, visual injury on 0 to 100 scale (0 no effect, 100 complete control), approx. 10 d
How it was run: as §1

[7] = system: Galium (catchweed bedstraw, Galium aparine); assay: Test A postemergence; conditions: Galium, post-emergence, 240 h, postemergence; for pest or weed control at 125 g/ha: 125 g ai/ha, visual injury on 0 to 100 scale (0 no effect, 100 complete control); for pest or weed control at 500 g/ha: 500 g ai/ha
How it was run: as §1

Kochia (Kochia scoparia) = assay: Test A postemergence; conditions: Bassia scoparia, post-emergence, 240 h, postemergence; for pest or weed control at 125 g/ha: 125 g ai/ha, visual injury on 0 to 100 scale (0 no effect, 100 complete control); for pest or weed control at 500 g/ha: 500 g ai/ha
How it was run: as §1

[8] = system: barnyardgrass (Echinochloa crus-galli); assay: Test A postemergence; conditions: Echinochloa crus-galli, post-emergence, 240 h, postemergence; for pest or weed control at 125 g/ha: 125 g ai/ha, visual injury on 0 to 100 scale (0 no effect, 100 complete control); for pest or weed control at 500 g/ha: 500 g ai/ha
How it was run: as §1

[9] = system: ragweed (common ragweed, Ambrosia elatior); assay: Test A postemergence; conditions: Ambrosia artemisiifolia, post-emergence, 240 h, postemergence, read-out: Ragweed plant response rating; for pest or weed control at 125 g/ha: 125 g ai/ha, visual injury on 0 to 100 scale (0 no effect, 100 complete control), approx. 10 d
How it was run: as §1

[10] = system: sedge, umbrella (small-flower umbrella sedge, Cyperus difformis); assay: Test B flooded paddy test; conditions: Cyperus difformis, 250 g ai/ha, Flood; 0 to 100 scale where 0 is no effect and 100 is complete control; read-out: Sedge, Umbrella plant response rating
How it was run: (§2)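 Visual ratings (0 none to 100 complete control) are relative to untreated plants, taken 13–15 d after treatment in a greenhouse. Test material went straight into floodwater standing 3 cm above the soil, kept constant, on plants at the 2-leaf stage.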

[11] = system: ducksalad (Heteranthera limosa); assay: Test B flooded paddy test; conditions: Heteranthera limosa, 250 g ai/ha, Flood; 0 to 100 scale where 0 is no effect and 100 is complete control; read-out: Ducksalad plant response rating
How it was run: as §2

[12] = system: barnyardgrass (Echinochloa crus-galli); assay: Test B flooded paddy test; conditions: Echinochloa crus-galli, 250 g ai/ha, Flood; 0 to 100 scale where 0 is no effect and 100 is complete control; read-out: Barnyardgrass plant response rating
How it was run: as §2

rice (Oryra sativa) = assay: Test B flooded paddy test; conditions: Oryza sativa, 250 g ai/ha, Flood; 0 to 100 scale where 0 is no effect and 100 is complete control; read-out: Rice plant response rating
How it was run: as §2

[13] = approx. 10 d, read-out: Blackgrass plant response rating
[14] = approx. 10 d, read-out: Corn plant response rating
[15] = approx. 10 d, read-out: Foxtail, Giant plant response rating
[16] = approx. 10 d, read-out: Galium plant response rating
[17] = approx. 10 d, read-out: Kochia plant response rating
[18] = approx. 10 d, read-out: Barnyardgrass plant response rating
[19] = 500 g ai/ha, 0 to 100 scale, 0 is no effect, 100 is complete control

Structure (SMILES)	pest or weed control at 125 g/ha [2] [%]	pest or weed control at 125 g/ha [3, 13] [%]	plant injury at 125 g/ha (corn (Zea mays); [14]) [%]	pest or weed control at 125 g/ha [4, 15] [%]	plant injury at 125 g/ha [5] [%]	pest or weed control at 125 g/ha [6] [%]	pest or weed control at 125 g/ha [7, 16] [%]	pest or weed control at 125 g/ha (Kochia (Kochia scoparia); [17]) [%]	pest or weed control at 125 g/ha [8, 18] [%]	pest or weed control at 125 g/ha [9] [%]	pest or weed control at 250 g/ha [10] [%]	pest or weed control at 250 g/ha [11] [%]	pest or weed control at 250 g/ha [12] [%]	pest or weed control at 250 g/ha (rice (Oryra sativa)) [%]	also measured
Cc1cc([C@H]2CNC(=O)[C@@H]2C(=O)Nc2ccccc2F)ccc1C(F)(F)F [Compound 1042]	20	40	60	80	0	30	30	30	80	0	0	75	30	0	pest or weed control at 125 g/ha ([1]; Preemergence, visual injury rating after approximately 10 d, read-out: Pigweed plant response rating (0 to 100 scale, 0 is no effect, 100 is complete control)): 30%; pest or weed control at 500 g/ha ([1]; preemergence, visual injury rating about 10 d after treatment, 0 to 100 scale (0 no effect, 100 complete control), read-out: Pigweed plant response rating): 50%; pest or weed control at 500 g/ha ([3]; visual injury, 0 to 100 scale (0 no effect, 100 complete control), approx. 10 d, read-out: Plant response rating, Blackgrass): 70%; Corn plant response rating (crop injury, 0 = no effect, 100 = complete kill) at 500 g/ha (corn (Zea mays); 500 g ai/ha, visual injury, 0 to 100 scale (0 no effect, 100 complete control), approx. 10 d): 70%; pest or weed control at 500 g/ha ([4]; visual injury, 0 to 100 scale (0 no effect, 100 complete control), approx. 10 d, read-out: Plant response rating, Foxtail, Giant): 90%; pest or weed control at 500 g/ha ([7]; visual injury, 0 to 100 scale (0 no effect, 100 complete control), approx. 10 d, read-out: Plant response rating, Galium): 50%; pest or weed control at 500 g/ha (Kochia (Kochia scoparia); visual injury, 0 to 100 scale (0 no effect, 100 complete control), approx. 10 d, read-out: Plant response rating, Kochia): 60%; pest or weed control at 500 g/ha ([8]; visual injury, 0 to 100 scale (0 no effect, 100 complete control), approx. 10 d, read-out: Plant response rating, Barnyardgrass): 90%
CN1C[C@H](c2ccc3c(c2)OCO3)[C@@H](C(=O)Nc2cccc(F)c2F)C1=O [Compound 1126]	0	20	60	80	50	30	50	50	90	40	0	100	75	0	pest or weed control at 125 g/ha ([1]; preemergence, 0 to 100 scale where 0 is no effect and 100 is complete control, approx. 10 d, read-out: Pigweed plant response rating): 30%; pest or weed control at 500 g/ha ([1]; preemergence, 0 to 100 scale where 0 is no effect and 100 is complete control, read-out: Pigweed plant response rating): 60%; pest or weed control at 500 g/ha [2, 19]: 30%; pest or weed control at 500 g/ha ([3]; 0 to 100 scale, 0 is no effect, 100 is complete control, read-out: Blackgrass plant response rating): 40%; plant injury at 500 g/ha (corn (Zea mays); 500 g ai/ha, 0 to 100 scale, 0 is no effect, 100 is complete control, read-out: Corn plant response rating): 90%; pest or weed control at 500 g/ha ([4]; 0 to 100 scale, 0 is no effect, 100 is complete control, read-out: Foxtail, Giant plant response rating): 90%; plant injury at 500 g/ha [5, 19]: 70%; pest or weed control at 500 g/ha [6, 19]: 50%; pest or weed control at 500 g/ha ([7]; 0 to 100 scale, 0 is no effect, 100 is complete control, read-out: Galium plant response rating): 40%; pest or weed control at 500 g/ha (Kochia (Kochia scoparia); 0 to 100 scale, 0 is no effect, 100 is complete control, read-out: Kochia plant response rating): 70%; pest or weed control at 500 g/ha ([8]; 0 to 100 scale, 0 is no effect, 100 is complete control, read-out: Barnyardgrass plant response rating): 90%; pest or weed control at 500 g/ha [9, 19]: 40%

Reference: patent publication US12077503B2, “Substituted cyclic amides and their use as herbicides” (FMC CORPORATION, priority 2015, dated 2024)
